These results are taken from ChEMBL document CHEMBL1201862, “PubChem BioAssay data set” (2004).

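Dose response: 5 concentrations. Exposure: 48 h. Format: 96-well plates. Endpoint: linear interpolation; highest concentration if not reached. Here, GI50 denotes the concentration required for 50% inhibition of growth.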 The source made the active and inactive calls. Rule as the data show it: active = GI50 up to about 1.1 µM and inactive = higher. A value given as a limit tells only on which side of the number the result lay.

Some test systems named below: ACHN; HCT-116; EKVX; SN12C; OVCAR-5; SF-268; Malme-3M; UO-31; SW-620; UACC-62; CCRF-CEM; TK-10; CAKI-1; MDA-N; OVCAR-8; HL-60; HCC 2998; COLO 205; IGROV-1; NCI-H460.
What all share (assay): NCI tumour cell line growth inhibition, 48 h

Take `CSc1ccc(NC(=O)Nc2cc(C)ccn2)cc1`: the GI50 in the experiment with ACHN, in the experiment on HCT-116, with EKVX, in the experiment on SN12C, with OVCAR-5 and with SF-268 was > 100 µM (inactive) in each case. Moreover, the GI50 in the experiment with Malme-3M, in the experiment on UO-31, with SW-620, in the experiment on UACC-62, in the experiment on CCRF-CEM and in the experiment on TK-10 was > 100 µM (inactive) each time. Further, the GI50 was > 100 µM (inactive) in the experiment with CAKI-1; > 100 µM (inactive) in the experiment on MDA-N; > 100 µM (inactive) with OVCAR-8; > 100 µM (inactive) in the experiment with HL-60; 91.4 µM (inactive) in the experiment with HCC 2998; > 100 µM (inactive) in the experiment with COLO 205. Moreover, the GI50 with IGROV-1 and in the experiment with NCI-H460 was > 100 µM (inactive) throughout.
Regarding `C[C@]12CC[C@@H]3c4cc(OCC(F)(F)F)c(O)cc4C(=O)C[C@H]3[C@@H]1CC[C@@H]2O`, the GI50 is 20.7 µM (inactive) in the experiment on ACHN; 3.72 µM (inactive) in the experiment on HCT-116; 14.7 µM (inactive) in the experiment with EKVX; 13.1 µM (inactive) in the experiment on SN12C; 29.9 µM (inactive) in the experiment on OVCAR-5; 13.7 µM (inactive) with SF-268. Also, the GI50 in the experiment on Malme-3M is 3.63 µM (inactive); in the experiment with UO-31, 13.6 µM (inactive); with SW-620, 4.02 µM (inactive); in the experiment with UACC-62, 3.26 µM (inactive); with CCRF-CEM it was 3.39 µM (inactive); with TK-10 it was 18.7 µM (inactive). The GI50 with CAKI-1 is 6.93 µM (inactive); in the experiment on MDA-N it was 1.6 µM (inactive); with OVCAR-8 it was 23.1 µM (inactive); in the experiment on HL-60, 1.84 µM (inactive); in the experiment on HCC 2998, 6.11 µM (inactive); in the experiment with COLO 205 it was 26.6 µM (inactive). Further, the GI50 in the experiment with IGROV-1 was 13.6 µM (inactive); in the experiment on NCI-H460, 4.71 µM (inactive).
Turning to `CCC(=O)C(c1ccccc1)c1ccccn1` (stereo not given), the GI50 in the experiment on ACHN, with HCT-116, in the experiment with EKVX, with SN12C, in the experiment with OVCAR-5 and in the experiment with SF-268 was > 100 µM (inactive) throughout. Moreover, the GI50 in the experiment with Malme-3M, in the experiment with UO-31, with SW-620, in the experiment on UACC-62, in the experiment on CCRF-CEM and with TK-10 was > 100 µM (inactive) each time. Moreover, the GI50 in the experiment with CAKI-1, in the experiment with MDA-N, in the experiment with OVCAR-8, in the experiment with HL-60, with HCC 2998 and in the experiment with COLO 205 was > 100 µM (inactive) in each case. In addition, the GI50 with IGROV-1 and with NCI-H460 was > 100 µM (inactive) in each case.
Turning to `Cc1ccc(C(=O)O)cc1S(=O)(=O)Nn1cnc2ccc(S(=O)(=O)Nc3ccccc3C(=O)O)cc2c1=O`, the GI50 with ACHN was > 100 µM (inactive); in the experiment on HCT-116 it was 46.1 µM (inactive); in the experiment on EKVX, > 100 µM (inactive); in the experiment on SN12C, > 100 µM (inactive); in the experiment on OVCAR-5, 54.6 µM (inactive); in the experiment with SF-268 it was > 100 µM (inactive). Also, the GI50 in the experiment with Malme-3M was > 100 µM (inactive); with UO-31 it was 46.1 µM (inactive); in the experiment on SW-620, > 100 µM (inactive); in the experiment with UACC-62, 8.93 µM (inactive); in the experiment on CCRF-CEM, > 100 µM (inactive); with TK-10, > 100 µM (inactive). For the same compound, the GI50 in the experiment with CAKI-1 is > 100 µM (inactive); in the experiment on MDA-N it was 47.3 µM (inactive); in the experiment with OVCAR-8, > 100 µM (inactive); with HL-60, > 100 µM (inactive); in the experiment with HCC 2998, > 100 µM (inactive); in the experiment with COLO 205, 31.6 µM (inactive). The results for the GI50 in the experiment with IGROV-1 and in the experiment on NCI-H460 were 60.7 µM (inactive) and > 100 µM (inactive), respectively.
As to `O=C1c2ccccc2CN1c1ccc(OCCN2CCCCC2)cc1`, the GI50 with ACHN, with HCT-116, in the experiment with EKVX, with SN12C, in the experiment on OVCAR-5 and with SF-268 was > 10 µM (inactive) each time. In addition, the GI50 with Malme-3M, with UO-31, with SW-620, in the experiment with UACC-62, in the experiment with CCRF-CEM and with TK-10 was > 10 µM (inactive) in each case. Besides, the GI50 in the experiment with CAKI-1, in the experiment on MDA-N, with OVCAR-8, with HL-60, in the experiment on HCC 2998 and in the experiment on COLO 205 was > 10 µM (inactive) each time. In addition, the GI50 in the experiment with IGROV-1 and with NCI-H460 was > 10 µM (inactive) throughout.
For `C=Cc1c(C)c(OC)cc2c1Oc1ccc(OC)c(C)c1CC2`, the GI50 was > 100 µM (inactive) in the experiment on ACHN; > 100 µM (inactive) in the experiment with HCT-116; 45.7 µM (inactive) with EKVX; > 100 µM (inactive) with SN12C; > 100 µM (inactive) in the experiment on OVCAR-5; > 100 µM (inactive) with SF-268. The GI50 in the experiment on Malme-3M, in the experiment on UO-31, in the experiment on SW-620, in the experiment with UACC-62, in the experiment with CCRF-CEM and in the experiment on TK-10 was > 100 µM (inactive) throughout. Also, the GI50 in the experiment with CAKI-1, with MDA-N, in the experiment on OVCAR-8, in the experiment on HL-60, in the experiment on HCC 2998 and with COLO 205 was > 100 µM (inactive) throughout. In addition, the GI50 in the experiment with IGROV-1 and in the experiment on NCI-H460 was > 100 µM (inactive) in each case.
For the compound `CC(C)(C)C1(COC(=O)c2ccc(N)cc2)COC1`, the GI50 in the experiment on ACHN was 78.7 µM (inactive); in the experiment with HCT-116 it was 51.9 µM (inactive); in the experiment on EKVX, 39.4 µM (inactive); with SN12C it was 94.6 µM (inactive); with OVCAR-5 it was > 100 µM (inactive); in the experiment with SF-268, > 100 µM (inactive). Further, the GI50 was 89.7 µM (inactive) in the experiment on Malme-3M; 56 µM (inactive) in the experiment with UO-31; > 100 µM (inactive) in the experiment with SW-620; 55 µM (inactive) in the experiment with UACC-62; 46 µM (inactive) with CCRF-CEM; > 100 µM (inactive) in the experiment on TK-10. Further, the GI50 in the experiment with CAKI-1 is > 100 µM (inactive); with MDA-N, 66.1 µM (inactive); with OVCAR-8, 58.3 µM (inactive); in the experiment on HL-60 it was 26.3 µM (inactive); with HCC 2998, 57.5 µM (inactive); in the experiment on COLO 205 it was > 100 µM (inactive). Moreover, the values for the GI50 with IGROV-1 and in the experiment on NCI-H460 were > 100 µM (inactive) and 48.4 µM (inactive), respectively.
As for `N/C(=N\O)NCCN1CCCCCCC1`, the GI50 in the experiment on ACHN is 20.1 µM (inactive); with HCT-116 it was 12.1 µM (inactive); with EKVX, > 100 µM (inactive); in the experiment on SN12C, 37.2 µM (inactive); with OVCAR-5 it was > 100 µM (inactive); with SF-268, > 100 µM (inactive). In addition, the GI50 in the experiment with Malme-3M, with UO-31, in the experiment with SW-620, with UACC-62, in the experiment with CCRF-CEM and in the experiment on TK-10 was > 100 µM (inactive) in each case. Further, the GI50 in the experiment with CAKI-1 was > 100 µM (inactive); in the experiment on MDA-N it was > 100 µM (inactive); in the experiment on OVCAR-8 it was 42 µM (inactive); in the experiment with HL-60, > 100 µM (inactive); with HCC 2998 it was > 100 µM (inactive); in the experiment on COLO 205 it was > 100 µM (inactive). Moreover, the GI50 in the experiment with IGROV-1 was 26.7 µM (inactive); in the experiment on NCI-H460 it was > 100 µM (inactive).
In the case of `COc1cc2cc(C(=O)N3CC(CCl)c4c3cc([N+](C)(C)Cc3ccc([N+](=O)[O-])n3C)c3ccccc43)[nH]c2c(OC)c1OC` (stereo not given), the GI50 is 0.381 µM (active) with ACHN; 1.48 µM (inactive) in the experiment with HCT-116; 2.72 µM (inactive) in the experiment on EKVX; 4.54 µM (inactive) with SN12C; 6.05 µM (inactive) with OVCAR-5; 2.62 µM (inactive) in the experiment with SF-268. Also, the GI50 in the experiment on Malme-3M is 3.79 µM (inactive); with UO-31 it was 1.17 µM (inactive); in the experiment with SW-620 it was 1.69 µM (inactive); in the experiment with UACC-62 it was 1.12 µM (inactive); in the experiment with CCRF-CEM it was 1.77 µM (inactive); in the experiment with TK-10, 2.67 µM (inactive). Moreover, the GI50 was 1.71 µM (inactive) with CAKI-1; 2.13 µM (inactive) in the experiment on MDA-N; 1.38 µM (inactive) in the experiment with OVCAR-8; 1.15 µM (inactive) in the experiment on HL-60; 0.3 µM (active) in the experiment with HCC 2998; 0.989 µM (active) in the experiment with COLO 205. Besides, the GI50 was 1.58 µM (inactive) in the experiment with IGROV-1 and 0.327 µM (active) with NCI-H460.
With `N#C/C(=C\c1ccc2[nH]ccc2c1)C(=O)c1ccc(O)c(O)c1`, the GI50 in the experiment on ACHN was 45.8 µM (inactive); in the experiment on HCT-116 it was > 53.6 µM (inactive); in the experiment on EKVX it was 57.9 µM (inactive); in the experiment on SN12C it was > 82.4 µM (inactive); in the experiment on OVCAR-5, > 73.8 µM (inactive); with SF-268, > 64.9 µM (inactive). In addition, the GI50 in the experiment on Malme-3M is > 65.8 µM (inactive); with UO-31 it was 45 µM (inactive); with SW-620, 55.2 µM (inactive); in the experiment on UACC-62 it was 70 µM (inactive); with CCRF-CEM, 24.5 µM (inactive); in the experiment on TK-10 it was > 72.1 µM (inactive). Further, the GI50 with CAKI-1 was > 100 µM (inactive); in the experiment on MDA-N, > 100 µM (inactive); in the experiment on OVCAR-8, > 100 µM (inactive); with HL-60, 27.5 µM (inactive); with HCC 2998, 66.7 µM (inactive); in the experiment on COLO 205, > 67.8 µM (inactive). The GI50 is > 88.5 µM (inactive) with IGROV-1 and 37 µM (inactive) in the experiment with NCI-H460.
